This test has as its system Experimental autoimmune encephalomyelitis (EAE) in female SJL mice. The experiment in a line: Experimental autoimmune encephalomyelitis (EAE) induced with PLP139-151, daily clinical scoring. The class given is in vivo. Conditions: for Number of sick animals: 2 × 5 mg/kg p.o., 2× daily up to day 21, n=10.
Setting [1] is: oral administration, compared with untreated controls.

In the case of `O=C(Nc1c(Cl)cncc1Cl)c1ccc(OC(F)F)c(OCC2CC2)c1` [substance A, 3-cyclopropylmethoxy-4-difluoromethoxy-N-(3,5-dichloropyrid-4-yl)benzamide], the “Number of sick animals” value runs as follows: (day 2 after EAE induction) 0; (day 4 after EAE induction) 0; (day 6 after EAE induction) 0; (day 8 after EAE induction) 0; (day 10 after EAE induction) 0; (day 12 after EAE induction) 0. Also, the “Number of sick animals” value (day 14 after EAE induction) was 1; the “Number of sick animals” value (day 16 after EAE induction) came to 3; the “Number of sick animals” value (day 18 after EAE induction) is recorded as 3; the “Number of sick animals” value (day 20 after EAE induction) was 3; the “Number of sick animals” value (day 22 after EAE induction) stood at 3; the “Number of sick animals” value (day 24 after EAE induction) was 4. For the setting “day 26 after EAE induction”, the “Number of sick animals” value worked out at 3. The “Number of experimental animals with no MS-analogous symptomatology at all” value (of the 10 treated animals, monitoring period up to the 26th day after EAE induction) worked out at 6. Further, the “Effect on onset of the MS-analogous symptomatology” value under setting [1] is given as “delay in the onset of the MS-analogous symptomatology”. Moreover, the “Effect on the number of animals which suffer from the experimental encephalitis” value under setting [1] was “marked decrease in the number of animals”.

These data come from patent US6531493B1, “3-cyclopropylmethoxy-4-difluoromethoxy-N-(3,5-dichloropyrid-4-yl)benzamide in the treatment of multiple sclerosis” (Altana Pharma AG, priority 1999, dated 2003).
